Data from patent US4871722A, “Synergistic veterinary composition and/or fodder premix and process for preparing same” (priority 1987, dated 1989).
Read-outs that look alike come from different tables or passages of the source.

Columns and labels:
Staphylococcus aureus = assay: MIC by broth-dilution method (bactericidal effect), strain A; assay type: cell-based; settings: read-out: MIC value
Protocol: (§1) The minimum inhibiting concentration (MIC) values of the above compounds and their two- or three-component combinations were determined in phenol-red - glucose broth (product of the Difco Co.) by using the broth-dilution method on the following bacterium strains isolated from chickens: […]

Salmonella typhimurium = assay: MIC by broth-dilution method (bactericidal effect), strain D; assay type: cell-based; settings: Salmonella enterica, read-out: MIC value
Protocol: (§2) The minimum inhibiting concentration (MIC) values of the above compounds and their two- or three-component combinations were determined in phenol-red - glucose broth (product of the Difco Co.) by using the broth-dilution method on the following bacterium strains isolated from chickens:
(§3) D: Salmonella typhimurium

Escherichia coli 2 = assay: MIC by broth-dilution method (bactericidal effect), strain C; assay type: cell-based
Protocol: as §1

Aspergillus fumigatus = assay: MIC by broth-dilution method (bactericidal effect), strain F; assay type: cell-based; settings: read-out: MIC value
Protocol: as §1

[1] = test system: bacterium strains isolated from chickens; assay: in vitro bacterial growth inhibition over the bacterium strains tested; assay type: cell-based; settings: single compound
Protocol: as §2, §3

Pasteurella multocida = assay: MIC by broth-dilution method (bactericidal effect), strain E; assay type: cell-based; settings: read-out: MIC value
Protocol: as §1

Escherichia coli 1 = assay: MIC by broth-dilution method (bactericidal effect), strain B; assay type: cell-based
Protocol: as §1

[2] = in vivo
[3] = in vivo; cited from earlier work
[4] = Escherichia coli, 2, read-out: MIC value
[5] = Escherichia coli, 1, read-out: MIC value
[6] = strain A: Staphylococcus aureus, phenol-red - glucose broth, bactericidal effect
[7] = strain D: Salmonella typhimurium, phenol-red - glucose broth, bactericidal effect
[8] = strain C: Escherichia coli 2, phenol-red - glucose broth, bactericidal effect, read-out: MIC value
[9] = strain F: Aspergillus fumigatus, phenol-red - glucose broth, bactericidal effect
[10] = strain E: Pasteurella multocida, phenol-red - glucose broth, bactericidal effect
[11] = strain B: Escherichia coli 1, phenol-red - glucose broth, bactericidal effect, read-out: MIC value

SMILES	MIC (Staphylococcus aureus; Staphylococcus aureus)	MIC (Salmonella typhimurium; TYPHIMURIUM)	MIC (Escherichia coli 2; [4])	MIC (Aspergillus fumigatus; Aspergillus fumigatus)	dose necessary for the in vitro antibacterial effect [1]	MIC (Pasteurella multocida; Pasteurella multocida)	MIC (Escherichia coli 1; [5])	MIC (Staphylococcus aureus; [6])	MIC (Salmonella typhimurium; [7])	MIC (Escherichia coli 2; [8])	MIC (Aspergillus fumigatus; [9])	MIC (Pasteurella multocida; [10])	MIC (Escherichia coli 1; [11])	toxicity; damage of haemopoietic organs and vessel walls [3]	other results
COc1ccc(Cc2cnc(N)nc2N)cc1OC [Diaveridine, 2,4-diamino-5-(3,4-dimethoxybenzyl)pyrimidine]	200 µg/mL	200 µg/mL	150 µg/mL	200 µg/mL	a very high dose	150 µg/mL	200 µg/mL	–	–	–	–	–	–	–	–
COc1cc(Cc2cnc(N)nc2N)cc(OC)c1OC [Trimetoprim, 2,4-diamino-5-(3,4,5-trimethoxybenzyl)pyrimidine]	–	–	–	–	a very high dose	–	–	200 µg/mL	200 µg/mL	200 µg/mL	200 µg/mL	100 µg/mL	200 µg/mL	–	–
Oc1cccc2cccnc12 [8-hydroxyquinoline]	–	–	–	–	a relatively low dose	–	–	–	–	–	–	–	–	–	required therapeutic blood level in the blood plasma [2]: cannot develop in the blood plasma
Nc1ccc(S(=O)(=O)Nc2cnc3ccccc3n2)cc1 [sulfachinoxaline, N-(2-chinoxalinyl)sulfanilamide]	–	–	–	–	–	–	–	–	–	–	–	–	–	the haemopoietic organs and vessel walls of the animals are significantly injured	–
COc1cc(NS(=O)(=O)c2ccc(N)cc2)nc(OC)n1 [Sulfadimethoxine, 2,6-dimethoxy-4-sulfanilamidopyrimidine]	–	–	–	–	–	–	–	200 µg/mL	200 µg/mL	200 µg/mL	200 µg/mL	200 µg/mL	200 µg/mL	no damages of the haemopoietic organs and vessel walls	toxicity compared with other sulfonamides [3]: one of the least toxic ones
O=S(=O)(O)O.Oc1cccc2cccnc12 [8-Hydroxyquinoline sulfate, 8-hydroxyquinoline sulfate]	5 µg/mL	50 µg/mL	25 µg/mL	25 µg/mL	–	1 µg/mL	25 µg/mL	–	–	–	–	–	–	–	–
